The target of data set [1] is T1, Btk enzyme (His-tagged, full-length) (Homo sapiens, UniProt Q06187).
T1 construct: 5-10 nM Btk enzyme (His-tagged, full-length); His
Briefly: Bruton's Tyrosine Kinase (Btk) Inhibition Assay (33P filtration capture). In kind it is biochemical. As to conditions: 100 μM ATP, 30 μM biotinylated SH2 peptide substrate, 30 min at 30° C. The source says:
The assay is a capture of radioactive ^33P phosphorylated product through filtration. The interactions of Btk, biotinylated SH2 peptide substrate (Src homology), and ATP lead to phosphorylation of the peptide substrate. Biotinylated product is bound streptavidin sepharose beads. All bound, radiolabeled products are detected by scintillation counter.
Plates assayed are 96-well polypropylene (Greiner) and 96-well 1.2 μm hydrophilic PVDF filter plates (Millipore). Concentrations reported here are final assay concentrations: 10-100 μM compounds in DMSO (Burdick and Jackson), 5-10 nM Btk enzyme (His-tagged, full-length), 30 μM peptide substrate (Biotin-Aca-AAAEEIYGEI-NH2), 100 μM ATP (Sigma), 8 mM imidazole (Sigma, pH 7.2), 8 mM glycerol-2-phosphate (Sigma), 200 μM EGTA (Roche Diagnostics), 1 mM MnCl2 (Sigma), 20 mM MgCl2 (Sigma), 0.1 mg/ml BSA (Sigma), 2 mM DTT (Sigma), 1 μCi ^33P ATP (Amersham), 20% streptavidin sepharose beads (Amersham), 50 mM EDTA (Gibco), 2 M NaCl (Gibco), 2 M NaCl w/1% phosphoric acid (Gibco), microscint-20 (Perkin Elmer).
IC50 determinations are calculated from 10 data points per compound utilizing data produced from a standard 96-well plate assay template. One control compound and seven unknown inhibitors were tested on each plate and each plate was run twice. Typically, compounds were diluted in half-log starting at 100 μM and ending at 3 nM. The control compound was staurosporine. Background was counted in the absence of peptide substrate. Total activity was determined in the presence of peptide substrate. The following protocol was used to determine Btk inhibition.
1) Sample preparation: The test compounds were diluted at half-log increments in assay buffer (imidazole, glycerol-2-phosphate, EGTA, MnCl2, MgCl2, BSA).
2) Bead preparation • a.) rinse beads by centrifuging at 500 g • b.) reconstitute the beads with PBS and EDTA to produce a 20% bead slurry
3) Pre-incubate reaction mix without substrate (assay buffer, DTT, ATP, P ATP) and mix with substrate (assay buffer, DTT, ATP, ^33P ATP, peptide substrate) 30° C. for 15 min.
4) To start assay, pre-incubate 10 μL Btk in enzyme buffer (imidazole, glycerol-2-phosphate, BSA) and 10 μL of test compounds for 10 min at RT.
5) Add 30 μL reaction mixture without or with substrate to Btk and compounds.
6) Incubate 50 μL total assay mix for 30 min at 30° C.
7) Transfer 40 μL of assay to 150 μL bead slurry in filter plate to stop reaction.
8) Wash filter plate after 30 min, with following steps • a. 3×250 μL NaCl • b. 3×250 μL NaCl containing 1% phosphoric acid • c. 1×250 μL H2O
9) Dry plate for 1 h at 65° C. or overnight at RT
10) Add 50 μL microscint-20 and count ^33P cpm on scintillation counter.
Calculate percent activity from raw data in cpm percent activity=(sample−bkg)/(total activity−bkg)×100
Calculate IC50 from percent activity, using one-site dose response sigmoidal model y=A+((B−A)/(1+((x/C)^D)))) • x=cmpd conc, y=% activity, A=min, B=max, C=IC50, D=1 (hill slope)

As usually defined, the IC50 is the concentration needed to halve the response being measured. A high value points to a need for much substance. Broadly, the melting point is the temperature, or range, at which the solid turns liquid.

Structures are written as SMILES.

T1 sequence (Q06187 whole entry): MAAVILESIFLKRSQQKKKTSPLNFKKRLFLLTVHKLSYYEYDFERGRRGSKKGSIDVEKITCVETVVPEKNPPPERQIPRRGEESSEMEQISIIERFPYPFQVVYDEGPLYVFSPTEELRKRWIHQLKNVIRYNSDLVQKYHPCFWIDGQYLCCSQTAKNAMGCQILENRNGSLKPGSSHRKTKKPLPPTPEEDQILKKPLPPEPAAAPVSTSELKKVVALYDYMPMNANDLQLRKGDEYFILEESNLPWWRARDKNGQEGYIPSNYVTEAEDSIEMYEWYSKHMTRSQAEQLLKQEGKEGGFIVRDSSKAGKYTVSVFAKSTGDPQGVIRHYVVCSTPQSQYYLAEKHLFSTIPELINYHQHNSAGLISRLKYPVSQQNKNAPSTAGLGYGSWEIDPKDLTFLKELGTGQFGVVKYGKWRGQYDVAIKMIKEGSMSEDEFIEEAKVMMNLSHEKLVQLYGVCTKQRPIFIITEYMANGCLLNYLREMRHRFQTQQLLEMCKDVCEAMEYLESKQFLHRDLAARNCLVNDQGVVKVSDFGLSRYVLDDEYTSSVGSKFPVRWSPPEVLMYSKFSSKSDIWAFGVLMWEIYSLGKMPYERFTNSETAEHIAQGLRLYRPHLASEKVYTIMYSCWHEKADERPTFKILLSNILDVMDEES

Regarding `CNC(=O)Nc1cc(-c2cccc(NC(=O)c3ccc(C(C)(C)C)cc3)c2C)cn2ccnc12` [Example I-56, 4-tert-Butyl-N-{2-methyl-3-[8-(3-methyl-ureido)-imidazo[1,2-a]pyridin-6-yl]-phenyl}-benzamide], the melting point was in the range of 148 to 149 °C. In data set [1], this molecule returned an IC50 of 24 nM.
Consider `CCNC(=O)Nc1cc(-c2cccc(NC(=O)c3ccc(C(C)(C)C)cc3)c2C)cn2ccnc12` [Example I-53, 4-tert-Butyl-N-{3-[8-(3-ethyl-ureido)-imidazo[1,2-a]pyridin-6-yl]-2-methyl-phenyl}-benzamide], for which it took 13 nM to reach half-maximal inhibition in data set [1] (IC50). That is a double-digit nanomolar value.
`Cc1c(NC(=O)c2ccc(C(C)(C)C)cc2)cccc1-c1cc(NC(=O)NCCCN(C)C)c2nccn2c1` [Example I-77, 4-tert-Butyl-N-(3-{8-[3-(3-dimethylamino-propyl)-ureido]-imidazo[1,2-a]pyridin-6-yl}-2-methyl-phenyl)-benzamide]: the melting point lay within 182.7 to 199.7 °C. In data set [1], this molecule registered an IC50 of 18 nM.
For `CCNC(=O)Nc1cc(-c2cccc(NC(=O)c3ccc(C(C)(C)C)cc3)c2C)nn2ccnc12` [Example I-7, 4-tert-Butyl-N-{3-[8-(3-ethyl-ureido)-imidazo[1,2-b]pyridazin-6-yl]-2-methyl-phenyl}-benzamide], the melting point was 181 to 183 °C. For the same molecule, in data set [1], it took 22 nM to reach half-maximal inhibition (IC50).
In the case of `CNC(=O)Nc1cc(-c2cccc(NC(=O)c3ccc(C(C)(C)C)cc3)c2C)nn2ccnc12` [Example I-8, 4-tert-Butyl-N-{2-methyl-3-[8-(3-methyl-ureido)-imidazo[1,2-b]pyridazin-6-yl]-phenyl}-benzamide], the melting point fell in the range of 163 to 165 °C. Half-maximal inhibition in data set [1] (IC50) was put at 10 nM.
In the same order, the values of `Cc1c(NC(=O)c2ccc(C(C)(C)C)cc2)cccc1-c1cc(NC(=O)NCCO)c2nccn2n1` [Example I-11, 4-tert-Butyl-N-(3-{8-[3-(2-hydroxy-ethyl)-ureido]-imidazo[1,2-b]pyridazin-6-yl}-2-methyl-phenyl)-benzamide] are 183 to 184 °C and 19 nM.
With `Cc1c(NC(=O)NC2CCC(S(C)(=O)=O)CC2)cccc1-c1cc(Nc2ccc(C(=O)N3CCOCC3)cn2)c2nccn2c1` (centres unmarked) [Example I-218, 1-(4-Methanesulfonyl-cyclohexyl)-3-(2-methyl-3-{8-[5-(morpholine-4-carbonyl)-pyridin-2-ylamino]-imidazo[1,2-a]pyridin-6-yl}-phenyl)-urea], in data set [1], the midpoint of inhibition, the IC50, lay at 10 nM.
Molecule `Cc1c(NC(=O)c2ccc(C(O)(C(F)(F)F)C(F)(F)F)cc2)cccc1-c1cc(NC(=O)NCCCN(C)C)c2nccn2c1` [Example I-98, N-(3-{8-[3-(3-Dimethylamino-propyl)-ureido]-imidazo[1,2-a]pyridin-6-yl}-2-methyl-phenyl)-4-(2,2,2-trifluoro-1-hydroxy-1-trifluoromethyl-ethyl)-benzamide] displayed a melting point of 198 to 200 °C.
On to `Cc1c(NC(=O)N2CC(OC(C)(C)C)C2)cccc1-c1cc(NC(=O)NCCCN(C)C)c2nccn2c1` [Example I-70, 3-tert-Butoxy-azetidine-1-carboxylic acid {3-{8-[3-(3-dimethylamino-propyl)-ureido]-imidazo[1,2-a]pyridin-6-yl}-2-methyl-phenyl)-amide], for which the melting point lay within 129 to 130 °C.
Molecule `Cc1c(NC(=O)c2ccc(N(C)C)cc2)cccc1-c1cc(NC(=O)NCCO)c2nccn2c1` [Example I-64, 4-Dimethylamino-N-(3-{8-[3-(2-hydroxy-ethyl)-ureido]-imidazo[1,2-a]pyridin-6-yl}-2-methyl-phenyl)-benzamide] registered a melting point of 153.7 to 164.4 °C.
Turning to `Cn1ccc(Nc2cc(-c3cccc(NC(=O)c4ccc(C5CC5)cc4)c3CO)nn3ccnc23)n1` [Example I-45, 4-Cyclopropyl-N-{2-hydroxymethyl-3-[8-(1-methyl-1H-pyrazol-3-ylamino)-imidazo[1,2-b]pyridazin-6-yl]-phenyl}-benzamide], half-maximal inhibition in data set [1] (IC50) required 15 nM.
In data set [1], `O=C(Nc1cccc(-c2cc(Nc3ccc(C(=O)N4CCOCC4)cn3)c3nccn3n2)c1CO)c1ccc(C2CC2)cc1` [Example I-43, 4-Cyclopropyl-N-(2-hydroxymethyl-3-{8-[5-(morpholine-4-carbonyl)-pyridin-2-ylamino]-imidazo[1,2-b]pyridazin-6-yl}-phenyl)-benzamide] displayed an IC50 of 13 nM.
